US8642793B1, “Biosurfactant produced by Aureobasidium pullulans” (Gyeongbuk Institute for Marine Bio-industry, priority 2012, dated 2014)
Like-named read-outs stand apart in the source and are kept apart here.

Columns and labels:
[1] = Measurement of surface tension with a surface tension meter (Sigma 700, KSV Instruments); assay type: physicochemical
Protocol: Compound L9 isolated in Example 1 was dropped on a hydrophobic film, and surface tension variation was observed using a surface tension meter (Densitometer, Sigma 700 Densitometer (KSV Instruments Ltd., Finland)). Water was a control, and a culture medium and the size of compound L9 were compared. The numerical value of the surface tension was shown as (dyne/cm (or mN/m)). When a surfactant that has a hydrophobic moiety and a hydrophilic moiety is added to water, surface tension decreases. […] As the intermolecular interaction increases, the surface tension increases. Surface tensions of Compound L9 and known materials produced by bacteria (Table 2) and yeasts (Table 3) were measured, and the results are shown in Tables 2 and 3 below.

[2] = reference liquids of Table 1, no amount given; cited from earlier work

With `CCCCC[C@@H](O)C[C@@H](O)CC(=O)O[C@H](CCCCC)C[C@@H](O)CC(=O)O[C@H](CCCCC)C[C@@H](O)CC(=O)OCC(O)CO` (stereo partly shown) [Compound L9] the Surface tension ([1]; amount of material 1.5 mg/L) was 31.5 dyne/cm, the Surface tension ([1]; at 1.5 mg/litter) was 31.5 mN/m and the “degree of activity (surface tension)” value ([1]; summary statement, no amount given) was 31 dyne/cm.

In the case of `OCC(O)CO` [Glycerin], the Surface tension [2] is listed as 63 dyne/cm.

Flavolipid showed a Surface tension ([1]; amount of material 300 mg/L) of 26.0 dyne/cm.

In the case of Iturin, the Surface tension ([1]; amount of material 20 mg/L) is reported as 43.0 dyne/cm.

With Rhamnolipid the Surface tension ([1]; amount of material 30 mg/L) was 31.4 dyne/cm.

In the case of Sophorolipid, the Surface tension ([1]; amount of material 40 mg/L) is reported as 35.0 dyne/cm.

Work on Trehalos lipid yielded a Surface tension ([1]; amount of material 25 mg/L) of 24.1 dyne/cm.

Trehalose lipid gave a Surface tension ([1]; amount of material 0.7 mg/L) of 43.0 dyne/cm.
